In patent US20170016884A1, “A NOVEL, HIGH-THROUGHPUT, NANOTOPOGRAPHIC PLATFORM FOR SCREENING CELL MIGRATORY BEHAVIOR” (THE JOHNS HOPKINS UNIVERSITY, priority 2014, published 2017):

How the values were obtained:
PDGFRα = PDGFRα (Homo sapiens, UniProt P16234); conditions: cited from earlier work
GB = conditions: cited from earlier work
primary human GB cells [1] = test: cell migration on multi-well nanopatterned platform (time-lapse microscopy); format: cell-based; conditions: for fraction of cells maintaining slower speeds (≦15 μm/hr): PDGF-exposed
Description: (§1) Cells were cultured in the multi-well, nanopatterned device for approximately 48 hours in the course of each experiment. Prior to plating cells, nanoridged substrata were coated with poly-D-lysine (10 μg ml-1) for 15 minutes and mouse laminin (from 10 to 140 μg ml-1) for 1 hour. These topographically patterned cell substrata, caused cells to align with and move along the direction of the nanoridges. Both prior to, and during experiments cells were maintained at 37° C. and 5% CO2 in Dulbecco's Modified Eagle Medium: Nutrient Mixture F-12 containing 2 mM L-glutamine, with added 50 U mL-1 penicillin, […] streptomycin. Where indicated, media contained 10% fetal bovine serum (Invitrogen) or alternatively, Platelet-Derive Growth Factor-AA (PDGF-AA) (LC Laboratories) at specified concentrations.
Cell migration was observed using time-lapse microscopy (Movies S1-S3). To enable long-term observation, the multi-well, nanopatterned device was mounted onto the stage of a motorized inverted microscope (Olympus IX81) equipped with a Photometrics® Cascade® 512B II CCD camera and temperature and gas controlling environmental chamber. Phase contrast cell images were automatically recorded under 10× objective (NA=0.30) using the SlideBook™ 4.1 Software (Intelligent Imaging Innovations, Denver, Colo.) for 10-15 hours at 10 or 20 minute intervals.
Because cell-cell contact is known to affect the extent of cell spreading and migration, cells were plated at low density (˜4×10^4 cells mL -1) to allow isolated movements. A custom-made MATLAB® script was used allow manual tracking and measurement of cells frame by frame. Analysis was stopped in the event of cell death, division, collision with non-cellular debris, or movement out of the field of view. Area and spindle shape factor of individual cells was measured in each frame, and averaged over the entire duration of the experiment. The spindle shape factor was defined as the ratio of the maximum cell length (long axis) to the maximum cell width in the direction perpendicular to long axis, regardless of the orientation with respect to nanoridge pattern. Averages of cell populations were calculated from at least 60 cells.
Cells movements were tracked by centroid position or by the approximate center of the cell body. Individual cell trajectories were used to calculate the mean squared displacement (MSD) at each interval. Instantaneous speeds of individual cells were calculated from the MSD and the duration of the image acquisition time interval. Average speeds of individual cells were calculated from the total distanced moved throughout the entire cell trajectory and the total time the cell was tracked. Persistence was obtained as previously described, by calculating the ratio of the shortest distance between starting point and end point, divided by the total distanced moved. Alignment to the nanoridge pattern was calculated by dividing the distance moved parallel to the ridges, by the distance moved perpendicular to the ridges. Averages of cell populations were calculated from at least 60 cells.

Akt = Akt phosphorylation via immunoblotting; format: cell-based, human; conditions: FIG. 10B
Description: Total cellular protein was extracted using NE-PER Nuclear and Cytoplasmic Extraction Reagents kit according to the manufacturer's instructions (Thermo Scientific) containing protease (Roche) and phosphatase inhibitor (Thermo). Protein concentration was determined using the Bradford protein quantification method (Biorad Protein Assay, Biorad). SDS-PAGE was performed with 25 μg total cellular protein per lane using 4-12% gradient Tris glycine gels. The primary antibodies used were as follows: anti PDGFR-alpha (1:200; Santa Cruz); phospho-PDGFR alpha (1:1000; Cell Signaling); Akt (1:1000; Cell Signaling);
phospho-Akt (1:1000; Cell Signaling).

human GB cells = test: mouse intracranial tumor xenograft of human GB cells with PDGF exposure; format: in vivo
Description: All animal protocols were approved by the Johns Hopkins School of Medicine Animal Care and Use Committee. For intracranial xenografts, SCID immnodeficient mice received 100,000 viable cells in 1 μl of DMEM/F12 serum media without growth factors by stereotactic injection into the right striatum. Cells were cultured in DMEM/F12 serum media with EGF/FGF and PDGF-AA ligand for three weeks before injections were performed. Cell viability was determined by trypan blue dye exclusion. Mice were perfused with 4% paraformaldehyde at the indicated times and the brains were removed for histological analysis.

primary human GB cells [2] = test: cell migration on flat (smooth) substrata; format: cell-based
Description: as §1, with “Prior to plating cells, nanoridged substrata were coated with poly-D-lysine (10 μg ml-1) for 15 minutes and mouse laminin (from 10 to 140 μg ml-1) for 1 hour.” left out
Cell migration was observed using time-lapse microscopy (Movies S1-S3). […] Phase contrast cell images were automatically recorded under 10× objective (NA=0.30) using the SlideBook™ 4.1 Software (Intelligent Imaging Innovations, Denver, Colo.) for 10-15 hours at 10 or 20 minute intervals.
Because cell-cell contact is known to affect the extent of cell spreading and migration, cells were plated at low density (˜4×10^4 cells mL -1) to allow isolated movements. […] Area and spindle shape factor of individual cells was measured in each frame, and averaged over the entire duration of the experiment. […] Averages of cell populations were calculated from at least 60 cells. […]

Chain of PDGFRα (P16234 24-1089): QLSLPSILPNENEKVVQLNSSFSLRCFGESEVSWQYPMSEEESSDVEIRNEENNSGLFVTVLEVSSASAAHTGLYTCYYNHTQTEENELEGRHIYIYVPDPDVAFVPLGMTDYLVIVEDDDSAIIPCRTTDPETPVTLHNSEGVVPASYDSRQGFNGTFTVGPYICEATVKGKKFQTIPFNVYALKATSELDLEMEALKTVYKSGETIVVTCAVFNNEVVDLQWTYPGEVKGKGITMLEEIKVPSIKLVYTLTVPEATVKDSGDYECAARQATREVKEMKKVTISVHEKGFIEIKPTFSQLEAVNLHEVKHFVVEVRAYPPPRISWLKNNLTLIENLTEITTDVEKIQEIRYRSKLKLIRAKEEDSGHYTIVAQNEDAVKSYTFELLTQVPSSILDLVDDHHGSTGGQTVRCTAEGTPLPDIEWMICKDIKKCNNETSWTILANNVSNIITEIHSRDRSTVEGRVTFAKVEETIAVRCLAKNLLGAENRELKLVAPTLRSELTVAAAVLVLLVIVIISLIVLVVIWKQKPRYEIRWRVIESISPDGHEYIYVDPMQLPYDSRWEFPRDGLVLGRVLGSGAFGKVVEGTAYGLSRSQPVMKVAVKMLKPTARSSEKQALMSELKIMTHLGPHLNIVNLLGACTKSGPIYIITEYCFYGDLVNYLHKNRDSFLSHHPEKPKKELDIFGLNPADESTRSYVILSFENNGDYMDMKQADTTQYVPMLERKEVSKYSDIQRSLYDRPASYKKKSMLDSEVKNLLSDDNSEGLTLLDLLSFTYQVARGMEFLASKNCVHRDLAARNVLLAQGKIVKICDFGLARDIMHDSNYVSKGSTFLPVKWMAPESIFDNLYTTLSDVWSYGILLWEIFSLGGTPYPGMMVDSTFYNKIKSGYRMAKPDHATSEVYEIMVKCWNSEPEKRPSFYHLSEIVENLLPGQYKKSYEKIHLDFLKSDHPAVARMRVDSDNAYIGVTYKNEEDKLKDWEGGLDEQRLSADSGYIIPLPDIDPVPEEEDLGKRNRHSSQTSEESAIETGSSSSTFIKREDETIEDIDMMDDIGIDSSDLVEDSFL

In the case of Cc1ccc(NC(=O)c2ccc(CN3CCN(C)CC3)cc2)cc1Nc1nccc(-c2cccnc2)n1 [Imatinib], the “interaction with PDGFRα” value (PDGFRα) is given as “known to interact with PDGFRα”, the GB growth (GB) is given as “inhibit GB growth in vitro and in vivo” and the “effect on PDGF-stimulated migration (speed and alignment)” value (primary human GB cells [1]; 'responding' sample GB 276, PDGF-stimulated) is given as “attenuation of enhancements in speed and alignment”.

With PDGF the “phosphorylation (activation) of downstream effector Akt” value (Akt) was “PDGFdependent”, the survival of mice (human GB cells; GB 276 neurospheres cultured with PDGF three weeks before intracranial injection, n=4) was “significantly reduced survival” and the “tumor size, invasiveness and shape” value (human GB cells; continuous PDGF exposure of tumor xenografts via infusion pump, n=2) was “larger, more invasion tumors with more eccentric shapes”. The “migratory response to PDGF exposure” value (primary human GB cells [2]) was “much more limited responses”, the “increase in migration speed upon PDGF stimulation vs unstimulated cells” value (primary human GB cells [1]; 'responding' GB samples, PDGF 40-50 ng/mL) was 15-100% and the “fraction of cells maintaining slower speeds (≦15 μm/hr)” value (primary human GB cells [1]; GB 318 cells) was “roughly 70%”. The “fraction of cells maintaining slower speeds (≦15 μm/hr)” value (primary human GB cells [1]; GB 630 cells) was ~60%, the “sub-population of aggressive cells accounting for the increased average migration speed” value (primary human GB cells [1]; in the presence of PDGF) was “approximately 20%” and the “maximal motility relative to control” value (primary human GB cells [1]; nanopatterned system, intermediate PDGF concentrations, serum-free medium) was “up to 2 fold”. The “dose dependence of response in migration speed and persistence” value (primary human GB cells [1]; nanopatterned system, seven PDGF concentrations) was “clear graded dose dependence”.

For “laminin: surface-immobilized ECM protein used to coat substrata”, the “differences in migration at varying laminin densities” value (primary human GB cells [2]; GB 318 cells) was “did not observe statistically significant differences” and the “response of speed, alignment and persistence to laminin coating concentration” value (primary human GB cells [1]; GB 318 cells, nanopatterned substrata, optimum at intermediate laminin values) was “biphasic response”.
